Laboratory results reported in patent US20090298872A1, “COMPOUNDS AND COMPOSITIONS AS MODULATORS OF STEROIDAL RECEPTORS AND CALCIUM CHANNEL ACTIVITIES” (IRM LLC, priority 2004, published 2009).

Tests used:
Type in all cases: cell-based
AR = biological target: T1, AR (Homo sapiens, UniProt P10275, Q868H); test: Functional assay of androgen receptor antagonism (MMTV luciferase reporter, MDA-kb2 cells); settings: antagonism of dihydrotestosterone (0.3 nM)-induced AR activity
T1 construct: endogenous in cells; host or cells: MDA-kb2 cells (ATCC)
T1 sequence (P10275 1-920 Q868H): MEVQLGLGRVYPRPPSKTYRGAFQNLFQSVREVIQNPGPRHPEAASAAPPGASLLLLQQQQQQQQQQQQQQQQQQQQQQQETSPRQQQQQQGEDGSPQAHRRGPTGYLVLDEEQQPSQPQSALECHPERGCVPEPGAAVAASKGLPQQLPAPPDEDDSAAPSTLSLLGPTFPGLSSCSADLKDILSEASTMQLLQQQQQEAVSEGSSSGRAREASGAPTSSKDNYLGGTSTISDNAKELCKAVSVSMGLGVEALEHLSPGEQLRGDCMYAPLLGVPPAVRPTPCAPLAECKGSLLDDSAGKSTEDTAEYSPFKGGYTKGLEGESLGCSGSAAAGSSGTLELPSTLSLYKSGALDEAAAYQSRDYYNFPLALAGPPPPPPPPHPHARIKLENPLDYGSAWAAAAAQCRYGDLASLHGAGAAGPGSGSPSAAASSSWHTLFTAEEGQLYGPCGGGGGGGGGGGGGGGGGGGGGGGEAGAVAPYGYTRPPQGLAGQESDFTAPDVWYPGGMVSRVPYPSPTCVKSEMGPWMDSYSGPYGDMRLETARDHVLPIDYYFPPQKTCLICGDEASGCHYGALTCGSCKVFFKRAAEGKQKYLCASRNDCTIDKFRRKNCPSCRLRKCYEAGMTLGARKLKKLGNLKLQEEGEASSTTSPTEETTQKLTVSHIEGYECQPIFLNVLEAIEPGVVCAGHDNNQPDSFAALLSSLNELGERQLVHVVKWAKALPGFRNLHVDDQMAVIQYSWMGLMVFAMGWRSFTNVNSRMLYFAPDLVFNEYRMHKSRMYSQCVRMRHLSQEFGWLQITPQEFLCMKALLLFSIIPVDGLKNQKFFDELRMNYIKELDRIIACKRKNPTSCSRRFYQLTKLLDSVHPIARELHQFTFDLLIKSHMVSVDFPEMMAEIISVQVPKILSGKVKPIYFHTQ
Description: The AR antagonist activity of the compounds is determined with the MDA-Kb2 cell line (ATCC), which stably expresses the MMTV luciferase reporter. The MMTV promoter is a mouse mammary tumor virus promoter that contains androgen receptor response elements. […] Upon stimulation with AR ligands, such as dihydrotestosterone, the MMTV luciferase reporter can be activated.
The assay is performed in 384 well plates. Briefly, MDA-kb2 cells are plated in 384 well plates at a density of approximately 2.4×10^4 cells/well in 50 μl medium. The medium is supplemented with 5% charcoal-dextran treated fetal bovine serum (Hyclone). Twenty four hours later, compounds prepared in DMSO are transferred to the cells. The cells are then stimulated with 0.3 nM final concentration of dihydrotestosterone (Sigma) and incubated at 37° C. for another 24 hours before the luciferase activity is assayed with 20 μl of Bright-Glo (Promega) using a luminometer (CLIPR). The expression of luciferase is used as an indicator of dihydrotestosterone-induced AR trans-activation. Each compound is tested in duplicate with a 12-concentration titration. IC50 values (defined as the concentration of test compound required to antagonize 50% of dihydrotestosterone-induced AR activity) are determined from the dose-response curve.

MR = biological target: T2, MR (Homo sapiens, UniProt P08235); test: Functional assay of mineralocorticoid receptor antagonism (mammalian two hybrid luciferase reporter, 293T cells); settings: antagonism of aldosterone (0.4 nM)-induced MR activity
T2 construct: expressed in transfected cells; host or cells: 293T cells (ATCC)
T2 sequence (P08235 672-984): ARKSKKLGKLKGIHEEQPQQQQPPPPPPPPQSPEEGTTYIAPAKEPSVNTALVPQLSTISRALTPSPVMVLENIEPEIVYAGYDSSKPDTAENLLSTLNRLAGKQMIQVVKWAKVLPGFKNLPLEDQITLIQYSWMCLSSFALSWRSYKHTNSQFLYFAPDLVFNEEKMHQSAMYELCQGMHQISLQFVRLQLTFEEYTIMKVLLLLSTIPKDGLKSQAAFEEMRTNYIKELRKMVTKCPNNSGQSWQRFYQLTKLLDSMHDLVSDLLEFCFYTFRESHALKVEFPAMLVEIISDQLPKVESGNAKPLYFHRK
Description: The MR antagonist activity of the compounds is determined in a mammalian two hybrid reporter system. The N-terminus of MR (MR-NT, sequence coding amino acid 1-597) is fused to the activation domain of the VP16 gene. The ligand binding domain of MR (MR-LBD, sequence encoding amino acid 672-984) is fused to the DNA binding domain of the yeast Gal4 gene. The MR gene is cloned from a human kidney cDNA library with PCR.
The assay is performed in 384 well plates. Briefly, 293T cells (ATCC) are transfected with expression vectors for Gal4-MR-LBD and VP16-MR NT, and a luciferase reporter vector containing Gal4 binding sequence (pG5-Luc). Cells are plated in 384 well plates immediately after transfection (approximately 3×10^4 cells/well in 50 μl medium). The medium is supplemented with 3% charcoal-dextran treated fetal bovine serum (Hyclone). Twenty four hours after transfection, compounds prepared in DMSO are transferred to the cells. The cells are then stimulated with 0.4 nM final concentration of aldosterone (Acros) and incubated at 37° C. for another 24 hours before the luciferase activity is assayed with 20 μl of Bright-Glo (Promega) using a luminometer (CLIPR). The expression of luciferase is used as an indicator of aldosterone-induced MR trans-activation. Each compound is tested in duplicate with 12-concentration titration. IC50 values (defined as the concentration of test compound required to antagonize 50% of aldosterone-induced MR activity) are determined from the dose-response curve.

GR = biological target: T3, GR (Homo sapiens, UniProt P04150); test: Functional assay of glucocorticoid receptor antagonism (Gal4-GR-LBD luciferase reporter, COS-7 cells); settings: antagonism of dexamethasone (10 nM)-induced GR activity
T3 construct: expressed in transfected cells; host or cells: COS-7 cells (ATCC)
T3 sequence (P04150 541-778 isoform P04150-3): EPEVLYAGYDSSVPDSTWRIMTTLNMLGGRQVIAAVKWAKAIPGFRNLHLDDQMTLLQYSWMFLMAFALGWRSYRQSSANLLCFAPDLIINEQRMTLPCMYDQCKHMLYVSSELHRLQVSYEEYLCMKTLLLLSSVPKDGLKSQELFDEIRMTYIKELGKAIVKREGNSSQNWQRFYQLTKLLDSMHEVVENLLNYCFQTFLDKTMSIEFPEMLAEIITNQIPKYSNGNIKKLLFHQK
Description: The GR antagonist activity of the compounds is determined in a mammalian two hybrid reporter system. The ligand binding domain of GR (GR-LBD, sequence encoding amino acid 541-778) is fused to the DNA binding domain of the yeast Gal4 gene. The GR gene is cloned from a human lung cDNA library with PCR.
The assay is performed in 384 well plates: COS-7 cells (ATCC) are transfected with expression vectors for Gal-4-GR-LBD and a luciferase reporter vector containing Gal4 binding sequence (pG5-Luc). Cells are plated in 384 well plates immediately after transfection (approximately 8000 cells/well in 50 μl medium). The medium is supplemented with 3% charcoal-dextran treated fetal bovine serum (Hyclone). Twenty four hours after transfection, compounds prepared in DMSO are transferred to the cells. The cells are then stimulated with 10 nM final concentration of dexamethasone (Sigma) and incubated at 37° C. for another 24 hours before the luciferase activity is assayed with 20 μl of Bright-Glo (Promega) using a luminometer (CLIPR). The expression of luciferase is used as an indicator of dexamethasone-induced GR trans-activation. Each compound is tested in duplicate with a 12-concentration titration. IC50 values (defined as the concentration of test compound required to antagonize 50% of dexamethasone-induced GR activity) are determined from the dose-response curve.

PR = biological target: T4, PR (Homo sapiens, UniProt P06401); test: Functional assay of progesterone receptor antagonism (progesterone-induced alkaline phosphatase, T-47D cells); settings: antagonism of progesterone (3 nM)-induced PR activity
T4 construct: endogenous in cells; host or cells: T-47D cells (ATCC)
T4 sequence (P06401 1-933): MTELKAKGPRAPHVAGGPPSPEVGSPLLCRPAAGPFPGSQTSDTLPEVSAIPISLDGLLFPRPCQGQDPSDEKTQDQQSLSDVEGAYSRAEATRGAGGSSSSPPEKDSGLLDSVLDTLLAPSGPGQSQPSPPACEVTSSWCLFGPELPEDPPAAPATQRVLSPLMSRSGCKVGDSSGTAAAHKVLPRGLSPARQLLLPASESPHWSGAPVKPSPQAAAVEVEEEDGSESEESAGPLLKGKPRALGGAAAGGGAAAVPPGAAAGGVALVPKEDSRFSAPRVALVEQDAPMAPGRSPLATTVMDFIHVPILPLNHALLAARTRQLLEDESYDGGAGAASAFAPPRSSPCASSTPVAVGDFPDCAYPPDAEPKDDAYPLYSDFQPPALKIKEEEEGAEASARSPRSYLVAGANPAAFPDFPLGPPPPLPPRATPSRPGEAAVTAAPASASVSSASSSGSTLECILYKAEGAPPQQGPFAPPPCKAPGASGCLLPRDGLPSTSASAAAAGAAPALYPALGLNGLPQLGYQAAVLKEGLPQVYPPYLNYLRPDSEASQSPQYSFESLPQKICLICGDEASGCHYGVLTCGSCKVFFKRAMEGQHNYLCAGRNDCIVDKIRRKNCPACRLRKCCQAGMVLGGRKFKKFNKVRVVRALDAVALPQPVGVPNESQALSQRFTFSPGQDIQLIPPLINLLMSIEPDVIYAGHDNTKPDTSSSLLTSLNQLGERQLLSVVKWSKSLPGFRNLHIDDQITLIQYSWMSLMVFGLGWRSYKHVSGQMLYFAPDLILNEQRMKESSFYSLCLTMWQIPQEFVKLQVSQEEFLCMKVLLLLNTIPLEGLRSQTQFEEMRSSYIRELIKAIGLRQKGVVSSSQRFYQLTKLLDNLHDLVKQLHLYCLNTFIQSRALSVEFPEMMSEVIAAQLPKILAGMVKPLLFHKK
Description: The PR antagonist activity of the compounds is determined by progesterone-induced alkaline phosphatase activity in the T-47D cell line (ATCC). In the T-47D breast cancer cells, progesterone specifically induces de novo synthesis of a membrane-associated alkaline phosphatase enzyme in a time and dose-dependent manner (Di Lorenzo et al., Cancer Research, 51: 4470-4475 (1991)). The alkaline phosphatase enzymatic activity can be measured with a chemiluminescent substrate, such as CSPD® (Applied Biosystems).
The assay is performed in 384 well plates. Briefly, T-47D cells are plated in 384 well plates at a density of approximately 2.5×10^4 cells/well in 50 μl medium supplemented with 10% fetal bovine serum. Twenty four hours later, the medium is aspirated. New medium that is free of phenol red and serum is added to the cells. Compounds prepared in DMSO are transferred to the cells. The cells are then stimulated with 3 nM final concentration of progesterone (Sigma) and incubated at 37° C. for another 24 hours before the alkaline phosphatase is assayed with 25 μl of CSPD® (Applied Biosystems) using a luminometer (CLIPR). The expression of alkaline phosphatase is used as an indicator of progesterone-induced PR trans-activation. Each compound is tested in duplicate with a 12-concentration titration. […]

Compound `COc1ccccc1NC(=O)C1=C(C)NC(SC)=C(C#N)C1c1ccccc1Br` (stereo not shown) [Compound 14, 2-methylthio-3-cyano-4-(2-bromophenyl)-5-(2-methoxyphenyl)carbamoyl-6-methyl-1,4-dihydro-pyridine] has an IC50 (AR) of 2600 nM and an IC50 (MR) of 8 nM.

Compound `COCC1=C(C(=O)OC(C)C)C(c2ccc(F)cc2Br)C(C#N)=C(C)N1` (stereo not shown) [Compound 96, 5-isopropyl-2-methyl-3-cyano-4-(2-bromo-4-fluorophenyl)-6-(methoxymethyl)-1,4-dihydro-pyridine-5-carboxylate] has an IC50 (AR) of 39800 nM, an IC50 (GR) of 3100 nM and an IC50 (MR) of 9 nM. It also gave an IC50 (PR) of 2300 nM.

Work on `COC(=O)C1=C(C)NC(C)=C(C#N)C1c1ccc(F)cc1Cl` (stereo not shown) [Example 207, 5-methyl-2,6-dimethyl-3-cyano-4-(2-chloro-4-fluorophenyl)-1,4-dihydro-pyridine-5-carboxylate] yielded an IC50 (AR) of 2860 nM, an IC50 (GR) of 6850 nM and an IC50 (MR) of 41 nM. The IC50 (PR) was 478 nM.
